The text below walks through data of US20150139973A1, “OPHTHALMOLOGICAL VEHICLE SYSTEM FOR DRUGS, OPHTHALMOLOGICAL KIT AND ALSO USE OF AN OPHTHALMOLOGICAL COMPOSITION” (F. HOLZER GMBH, priority 2012, published 2015).

This data set relates to human corneal epithelial cell line HCE-T. Nature of the data set: Vitality determination on corneal epithelial cells in culture (Cell Titer Blue test). It is filed as cell-based. The settings on record: 60 minutes incubation. The protocol:
The cytotoxicity tests were performed on the human corneal epithelial cell line […]. in the cell test. Cultivation was effected in a black 96 well plate (Nunc). Per well, 25,000 cells were sown and cultivated for 48 h. Determination of the viability was implemented with the Cell Titer Blue® test. The dye resazurin is hereby added to the cells after exposure with the samples. Viable cells are able, because of their mitochondrial activity, to convert the resazurin into the fluorescent resorufin which can be determined fluorimetrically (Illustration 1). Via positive control (Krebs-Ringer-buffer-KRB and saline phosphate buffer-PBS) and also negative control (lysis buffer), the viability of the cells can be expressed as a percentage. All samples were determined with n=6. For the determination, the cell culture medium was removed, the cells were rinsed with KRB and incubated for 60 minutes with the various samples and also controls. […] Thereafter, all samples were treated with KRB and resazurin according to Promega protocol and measured with a Genios Plate Reader (Tecan).
In general terms: Alamar Blue is a resazurin reagent that responds to reducing activity.

On to `CCCCCCCCCCCCCCCC(=O)OC(C)C` [Sample K4, isopropyl palmitate], for which the cytotoxicity entry was “lowest cytotoxicity” and the “survival rate of the cells” value worked out at 100%.
